Measured values as given in ChEMBL document CHEMBL1121780, “Synthesis and antiarrhythmic activity of new benzofuran derivatives” (J Med Chem, 1981).
Activity calls are given as the source filed them. The rule behind the calls is not given here.

Assays:
[1] = Toxicity estimated in mouse as LD50 by intravenous administration; type: organism-based; settings: in vivo
Canis familiaris [2] = species: Canis familiaris; test: Activity against ouabain-induced ventricular arrhythmia was measured as percent of sinus rhythm recovery; Inactive; type: functional, organism-based; settings: Canis lupus familiaris; Cardiac ventricle
Canis familiaris [3] = species: Canis familiaris; test: Duration for the sinus rhythm recovery was measured; type: functional, Canis lupus familiaris
Canis familiaris [4] = test: Activity against ouabain-induced ventricular arrhythmia was measured as percent of sinus rhythm recovery at dose of 1 mg/kg iv; type: functional, Canis lupus familiaris, Cardiac ventricle
Canis familiaris [5] = species: Canis familiaris; test: Activity against ouabain-induced ventricular arrhythmia was measured as percent of sinus rhythm recovery; Estimated as too toxic to be tested; type: functional, organism-based; settings: Canis lupus familiaris; Cardiac ventricle
Canis familiaris [6] = test: Activity against harris coronary ligation induced ventricular arrhythmia was measured as percent of initial sinus complexes after dose 1 mg/kg iv; Inactive; type: organism-based, Canis lupus familiaris, Cardiac ventricle; parameters: dose 1 mg/kg; settings: dog, in vivo
Canis familiaris [7] = test: Activity against harris coronary ligation induced ventricular arrhythmia was measured as percent of initial sinus complexes after dose 5 mg/kg, iv; type: functional, Canis lupus familiaris, Cardiac ventricle
Canis familiaris [8] = test: Activity against ouabain-induced ventricular arrhythmia was measured as percent of sinus rhythm recovery at dose of 4 mg/kg iv; type: functional, Canis lupus familiaris, Cardiac ventricle
Canis familiaris [9] = species: Canis familiaris; test: Duration for the antiarrhythmic activity was measured; type: functional, Canis lupus familiaris, Heart
Canis familiaris [10] = test: Activity against harris coronary ligation induced ventricular arrhythmia was measured as percent of final sinus complexes after dose 5 mg/kg, iv; type: functional, Canis lupus familiaris, Cardiac ventricle
Canis familiaris [11] = test: Activity against ouabain-induced ventricular arrhythmia was measured as percent of sinus rhythm recovery at dose of 2 mg/kg iv; type: functional, Canis lupus familiaris, Cardiac ventricle
Canis familiaris [12] = test: Activity against harris coronary ligation induced ventricular arrhythmia was measured as percent of initial sinus complexes after dose 2 mg/kg iv; type: functional, Canis lupus familiaris, Cardiac ventricle
Canis familiaris [13] = test: Activity against harris coronary ligation induced ventricular arrhythmia was measured as percent of final sinus complexes after dose 2 mg/kg iv; type: functional, Canis lupus familiaris, Cardiac ventricle
Canis familiaris [14] = test: Activity against harris coronary ligation induced ventricular arrhythmia was measured as percent of initial sinus complexes after dose 4 mg/kg iv; Inactive; type: functional, organism-based; parameters: dose 4 mg/kg; settings: Canis lupus familiaris; Cardiac ventricle; at 4 mg/kg
Canis familiaris [15] = test: Activity against harris coronary ligation induced ventricular arrhythmia was measured as percent of initial sinus complexes after dose 2 mg/kg, iv; Inactive; type: functional, organism-based; parameters: dose 2 mg/kg; settings: Canis lupus familiaris; Cardiac ventricle; at 2 mg/kg
Canis familiaris [16] = test: Activity against harris coronary ligation induced ventricular arrhythmia was measured as percent of initial sinus complexes after dose 12.5 mg/kg, po; type: functional, Canis lupus familiaris, Cardiac ventricle
Canis familiaris [17] = test: Activity against harris coronary ligation induced ventricular arrhythmia was measured as percent of final sinus complexes after dose 2 mg/kg, iv; type: functional, Canis lupus familiaris, Cardiac ventricle
Canis familiaris [18] = test: Activity against harris coronary ligation induced ventricular arrhythmia was measured as percent of final sinus complexes after dose 12.5 mg/kg, po; type: functional, Canis lupus familiaris, Cardiac ventricle

Row | Compound | LD50 [1] | SRR (Canis familiaris [2]) | Duration (Canis familiaris [3]) | other results
1 | CNC(=O)Nc1c(OCCCN(C)C)c(OC)c2occc2c1OC | 44 mg/kg | inactive | – | –
2 | CCNCCOc1c(NC(C)=O)c(OC)c2ccoc2c1OC | 68 mg/kg | inactive | – | –
3 | COc1c(NC(C)=O)c(OCCNC2CCCCC2)c(OC)c2occc12 | 11.5 mg/kg | – | <30 min | SRR (Canis familiaris [4]): 50%
4 | COc1c(NC(=O)c2ccccc2)c(OCCN2CCCCC2)c(OC)c2occc12 | 2.5 mg/kg | – | – | SRR (Canis familiaris [5]): Estimated as too toxic to be tested
5 | COC(=O)Nc1c(OCCN2CCCCC2)c(OC)c2occc2c1OC | 15 mg/kg | inactive | – | –
6 | CNC(=O)Nc1c(OCCNC2CCCCC2)c(OC)c2occc2c1OC | 9.5 mg/kg | – | 120 min | ISC (Canis familiaris [6]): Not Active; SRR (Canis familiaris [4]): 100%
7 | CNC(=O)Nc1c(OCCCN2CCCC2)c(OC)c2occc2c1OC | 32 mg/kg | – | >60 min | ISC (Canis familiaris [7]): 0%; SRR (Canis familiaris [8]): 100%; Duration (Canis familiaris [9]): 20 min; FSC (Canis familiaris [10]): 9%
8 | CNC(=O)Nc1c(OCCNC(C)C)c(OC)c2occc2c1OC | 49 mg/kg | – | <30 min | SRR (Canis familiaris [8]): 100%
9 | COc1c(NC(C)=O)c(OCCN2CCOCC2)c(OC)c2occc12 | 200 mg/kg | inactive | – | –
10 | COc1c(NC=O)c(OCCN2CCCCC2)c(OC)c2occc12 | 46 mg/kg | – | 10 min | SRR (Canis familiaris [8]): 100%
11 | COc1c(NC(=O)OC2CCCCC2)c(OCCN2CCCCC2)c(OC)c2occc12 | 15 mg/kg | inactive | – | –
12 | COc1c(NC(C)=O)c(OCCN(C)C)c(OC)c2occc12 | 138 mg/kg | inactive | – | –
13 | CNC(=O)N(C)c1c(OCCN2CCCCC2)c(OC)c2occc2c1OC | 66 mg/kg | – | <10 min | SRR (Canis familiaris [11]): 100%
14 | COc1c(NC(=O)Nc2ccccc2)c(OCCN2CCCCC2)c(OC)c2occc12 | 9 mg/kg | inactive | – | –
15 | CNC(=O)Nc1c(OC)ccc(OC)c1OCCN1CCCCC1 | 135 mg/kg | inactive | – | –
16 | COc1c(NC(C)=O)c(OCCN2CCCCCCC2)c(OC)c2occc12 | 21 mg/kg | – | >50 min | ISC (Canis familiaris [12]): 5%; Duration (Canis familiaris [9]): <30 min; FSC (Canis familiaris [13]): 17%; SRR (Canis familiaris [4]): 100%
17 | COc1c(NC(=O)C2CCCCC2)c(OCCN2CCCCC2)c(OC)c2occc12 | 7 mg/kg | – | – | SRR (Canis familiaris [5]): Estimated as too toxic to be tested
18 | CNS(=O)(=O)Nc1c(OCCN2CCCCC2)c(OC)c2occc2c1OC | 39 mg/kg | inactive | – | –
19 | COc1c(NC(N)=O)c(OCCN2CCCCC2)c(OC)c2occc12 | 40 mg/kg | inactive | – | –
20 | COc1c(NC(=O)C(F)(F)F)c(OCCN2CCCCC2)c(OC)c2occc12 | 22 mg/kg | inactive | – | –
21 | CNC(=O)Nc1c(OCCN2CCOCC2)c(OC)c2occc2c1OC | 100 mg/kg | inactive | – | –
22 | CNC(=O)Nc1c(OCCCCN2CCCC2)c(OC)c2occc2c1OC | 36 mg/kg | inactive | – | –
23 | CCN(CC)CCOc1c(NC(=O)NC)c(OC)c2ccoc2c1OC | 74 mg/kg | – | >120 min | SRR (Canis familiaris [11]): 100%; ISC (Canis familiaris [14]): inactive
24 | COc1c(NC(=O)N(C)C)c(OCCN2CCCCC2)c(OC)c2occc12 | 25 mg/kg | – | 60 min | ISC (Canis familiaris [12]): 22%; SRR (Canis familiaris [8]): 50%; Duration (Canis familiaris [9]): 40 min; FSC (Canis familiaris [13]): 52%
25 | COc1c(NC(=O)NC2CCCCC2)c(OCCN2CCCCC2)c(OC)c2occc12 | 42 mg/kg | inactive | – | –
26 | CNC(=O)Nc1c(OCCCN2CCCCC2)c(OC)c2occc2c1OC | 42.5 mg/kg | – | >100 min | SRR (Canis familiaris [11]): 100%; ISC (Canis familiaris [15]): inactive

Row | Compound | LD50 [1] | SRR (Canis familiaris [2]) | Duration (Canis familiaris [3]) | other results
27 | COc1c(NC(=O)NC(C)(C)C)c(OCCN2CCCCC2)c(OC)c2occc12 | 11.5 mg/kg | inactive | – | –
28 | CCCCNC(=O)Nc1c(OCCN2CCCCC2)c(OC)c2occc2c1OC | 22 mg/kg | inactive | – | –
29 | COc1c(NC(C)=O)c(OCCCN2CCCCC2)c(OC)c2occc12 | 40.5 mg/kg | inactive | – | –
30 | CCNC(=O)Nc1c(OCCN2CCCCC2)c(OC)c2occc2c1OC | 28 mg/kg | – | 120 min | SRR (Canis familiaris [11]): 100%; ISC (Canis familiaris [12]): 25%; Duration (Canis familiaris [9]): <30 min; FSC (Canis familiaris [13]): 90%
31 | CCN(CC)CCCOc1c(NC(=O)NC)c(OC)c2ccoc2c1OC | 76 mg/kg | – | 15 min | SRR (Canis familiaris [11]): 100%
32 | CNC(=O)Nc1c(OC(C)CN2CCCCC2)c(OC)c2occc2c1OC (stereo not given) | 23 mg/kg | – | 15 min | SRR (Canis familiaris [4]): 100%
33 | CNC(=O)Nc1cc2ccoc2cc1OCCN1CCCCC1 | 67 mg/kg | inactive | – | –
34 | CCOC(=O)Nc1c(OCCN2CCCCC2)c(OC)c2occc2c1OC | 13 mg/kg | inactive | – | –
35 | COc1c(NC(=O)NC(C)C)c(OCCN2CCCCC2)c(OC)c2occc12 | 25 mg/kg | inactive | – | –
36 | CNC(=O)Nc1c(OC)c(OC)c2occc2c1OCCN1CCCCC1 | 200 mg/kg | inactive | – | –
37 | COc1c(NC(=O)C(C)C)c(OCCN2CCCCC2)c(OC)c2occc12 | 78 mg/kg | inactive | – | –
38 | CCN(CC)CCOc1c(NC(C)=O)c(OC)c2ccoc2c1OC | 85 mg/kg | inactive | – | –
39 | CNCCOc1c(NC(C)=O)c(OC)c2ccoc2c1OC | 96 mg/kg | inactive | – | –
40 | CN/C(S)=N/c1c(OCCN2CCCCC2)c(OC)c2occc2c1OC | 17 mg/kg | inactive | – | –
41 | COc1c(N)c(OCCN2CCCCC2)c(OC)c2occc12 | 21 mg/kg | inactive | – | –
42 | CNC(=O)Nc1c(OCCN2CCCCC2)c(OC)c2occc2c1OC(C)C | 11 mg/kg | inactive | – | –
43 | COc1c(NC(C)=O)c(OCCN2CCCCCC2)c(OC)c2occc12 | 33 mg/kg | inactive | – | –
44 | CNCCOc1c(NC(=O)NC)c(OC)c2ccoc2c1OC | 67 mg/kg | inactive | – | –
45 | CCCNC(=O)Nc1c(OCCN2CCCCC2)c(OC)c2occc2c1OC | 18.5 mg/kg | inactive | – | –
46 | COc1c(NC(C)=O)c(OCCN2CCCC2)c(OC)c2occc12 | 80 mg/kg | – | <30 min | SRR (Canis familiaris [8]): 33%
47 | CNC(=O)Nc1c(OCC(C)N2CCCCC2)c(OC)c2occc2c1OC (stereo not given) | 36 mg/kg | – | 60 min | SRR (Canis familiaris [11]): 100%
48 | CCOc1c(NC(=O)NC)c(OCCN2CCCCC2)c(OC)c2occc12 | 10 mg/kg | – | – | SRR (Canis familiaris [5]): inactive
49 | CNC(=O)Nc1c(OCCCCN2CCCCC2)c(OC)c2occc2c1OC | 68 mg/kg | – | <30 min | SRR (Canis familiaris [8]): 100%
50 | CNC(=O)Nc1c(OCCN2CCCCCC2)c(OC)c2occc2c1OC | 31 mg/kg | – | 95 min | ISC (Canis familiaris [16]): 5%; SRR (Canis familiaris [11]): 100%; ISC (Canis familiaris [12]): 3%; FSC (Canis familiaris [17]): 78%; FSC (Canis familiaris [18]): 90%
51 | CNC(=O)Nc1c(OCCN2CCCCCCC2)c(OC)c2occc2c1OC | 14 mg/kg | – | 30 min | SRR (Canis familiaris [11]): 100%; ISC (Canis familiaris [15]): inactive
